Active and inactive are the calls of the source. The calls are words filed in the database; no cut-off is given here.
Legend:
[1] = test system: KMM-1; assay: (§1) Growth inhibition of human KMM-1 cells at 10 uM after 48 hrs by PrestoBlue cell viability assay relative to control; assay type: functional
[2] = Growth inhibition of human MM1.R cells after 48 hrs by PrestoBlue cell viability assay; assay type: functional; conditions: MM.1R
[3] = test system: MM.1R; assay: Down regulation of MYC protein expression in human MM1.R cells at 10 uM after 48 hrs by immunoblotting analysis; assay type: functional, cell-based
[4] = Potency index, ratio of lenalidomide IC50 to test compound IC50 for growth inhibition of human KMM-1 cells; assay type: functional
[5] = test system: JJN-3; assay: Growth inhibition of human JJN-3 cells after 48 hrs by PrestoBlue cell viability assay; assay type: functional, cell-based; conditions: JJN-3, 48 h
[6] = test system: MM.1R; assay: Induction of apoptosis in human MM1.R cells assessed as increase in cleaved caspace-8 protein expression at 10 uM after 48 hrs by immunoblotting analysis; assay type: functional, cell-based
[7] = test system: MM.1R; assay: Down regulation of SP1 protein expression in human MM1.R cells at 10 uM after 48 hrs by immunoblotting analysis; assay type: functional, cell-based
[8] = Growth inhibition of human KMM-1 cells after 48 hrs by PrestoBlue cell viability assay; assay type: functional, cell-based; conditions: KMM-1, 48 h
[9] = test system: MM.1R; assay: Induction of apoptosis in human MM1.R cells assessed as increase in cleaved caspace-8 protein expression at 5 to 25 uM after 48 hrs by immunoblotting analysis; assay type: functional, cell-based; conditions: dose 5-25 µM
[10] = Induction of apoptosis in human KMM-1 cells assessed as late apoptotic cells at 10 uM after 72 hrs by Annexin V/PropidiumIodide staining based flow cytometric analysis (reference value: 4 +/- 0.5%); assay type: functional
[11] = as §1; assay type: functional; conditions: read-out: GI
[12] = Cytotoxicity against human Mononuclear cells assessed as reduction in cll viability at 25 to 50 uM after 48 hrs by PrestoBlue cell viability assay; assay type: cell-based; conditions: mononuclear cell line, dose 25-50 µM
[13] = Induction of apoptosis in human KMM-1 cells assessed as viable cells at 25 uM after 72 hrs by Annexin V/PropidiumIodide staining based flow cytometric analysis (reference value: 87 +/- 1%); assay type: functional; conditions: read-out: Activity
[14] = Induction of apoptosis in human KMM-1 cells assessed as early apoptotic cells at 10 uM after 72 hrs by Annexin V/PropidiumIodide staining based flow cytometric analysis (reference value: 1 +/- 0.4%); assay type: functional
[15] = test system: B cell; assay: Cytotoxicity against human naive B cells assessed as reduction in cll viability at 25 to 50 uM after 48 hrs by PrestoBlue cell viability assay; assay type: cell-based; conditions: dose 25-50 µM
[16] = Induction of apoptosis in human KMM-1 cells assessed as increase in cleaved caspace-3 expression at 50 uM after 48 hrs by immunoblotting analysis; assay type: functional
[17] = test system: JJN-3; assay: Down regulation of IKZF1 protein expression in human JJN-3 cells at 50 uM after 48 hrs by immunoblotting analysis; assay type: functional, cell-based
[18] = Induction of apoptosis in human KMM-1 cells assessed as necrotic cells at 25 uM after 72 hrs by Annexin V/PropidiumIodide staining based flow cytometric analysis (reference value: 8 +/-1%); assay type: functional
[19] = Induction of apoptosis in human KMM-1 cells assessed as apoptotic cells at 10 uM after 72 hrs by Annexin V/PropidiumIodide staining based flow cytometric analysis relative to control; assay type: functional
[20] = test system: MM.1R; assay: Down regulation of SP1 protein expression in human MM1.R cells at 25 uM after 48 hrs by immunoblotting analysis; assay type: functional, cell-based
[21] = Growth inhibition of human KMM-1 cells at 25 uM after 48 hrs by PrestoBlue cell viability assay relative to control; assay type: functional; conditions: read-out: GI
[22] = test system: JJN-3; assay: Down regulation of IRF4 protein expression in human JJN-3 cells at 50 uM after 48 hrs by immunoblotting analysis; assay type: functional, cell-based
[23] = Induction of apoptosis in human KMM-1 cells assessed as early apoptotic cells at 25 uM after 72 hrs by Annexin V/PropidiumIodide staining based flow cytometric analysis (reference value: 1 +/- 0.4%); assay type: functional
[24] = test system: KMM-1; assay: Down regulation of IRF4 mRNA expression in human KMM-1 cells at 50 uM incubated for 48 hrs by 48 hrs by RT-PCR analysis; assay type: functional, cell-based
[25] = Induction of apoptosis in human KMM-1 cells assessed as late apoptotic cells at 25 uM after 72 hrs by Annexin V/PropidiumIodide staining based flow cytometric analysis (reference value: 4 +/- 0.5%); assay type: functional
[26] = test system: KMM-1; assay: Down regulation of OCT2 protein expression in human KMM-1 cells at 50 uM after 48 hrs by immunoblotting analysis; assay type: functional, cell-based
[27] = Down regulation of IRF4 protein expression in human KMM-1 cells at 50 uM incubated for 48 hrs by 48 hrs by immunoblotting analysis relative to control; assay type: functional
[28] = Induction of apoptosis in human KMM-1 cells assessed as viable cells at 10 uM after 72 hrs by Annexin V/PropidiumIodide staining based flow cytometric analysis (reference value: 87 +/- 1%); assay type: functional; conditions: read-out: Activity
[29] = test system: KMM-1; assay: Down regulation of cyclin D3 expression in human KMM-1 cells after 48 hrs by immunoblotting analysis; assay type: functional, cell-based; conditions: dose 5-50 µM
[30] = test system: KMM-1; assay: Down regulation of Bob-1 protein expression in human KMM-1 cells at 50 uM after 48 hrs by immunoblotting analysis; assay type: functional, cell-based
[31] = Induction of apoptosis in human MM1.R cells assessed as apoptotic cells at 10 uM after 72 hrs by Annexin V/PropidiumIodide staining based flow cytometric analysis relative to control; assay type: functional, MM.1R
[32] = Growth inhibition of human KMM-1 cells at 50 uM after 48 hrs by PrestoBlue cell viability assay relative to control; assay type: functional; conditions: read-out: GI
[33] = test system: JJN-3; assay: Down regulation of SP1 protein expression in human JJN-3 cells at 25 uM after 48 hrs by immunoblotting analysis; assay type: functional, cell-based
[34] = test system: KMM-1; assay: Growth inhibition of human KMM-1 cells at 1 to 100 uM after 72 hrs by PrestoBlue cell viability assay; assay type: functional, cell-based; conditions: dose 1-100 µM
[35] = test system: MM.1R; assay: Induction of apoptosis in human MM1.R cells at 10 uM after 48 hrs by Annexin V/Propidium Iodide flow cytometric analysis; assay type: functional, cell-based
[36] = Induction of apoptosis in human KMM-1 cells assessed as necrotic cells at 10 uM after 72 hrs by Annexin V/PropidiumIodide staining based flow cytometric analysis (reference value: 8 +/-1%); assay type: functional
[37] = test system: KMM-1; assay: Down regulation of cyclin D3 expression in human KMM-1 cells at 5 to 50 uM after 48 hrs by immunoblotting analysis; assay type: functional, cell-based; conditions: dose 5-50 µM
[38] = test system: KMM-1; assay: Growth inhibition of human KMM-1 cells at 1 to 10 uM after 48 hrs by PrestoBlue cell viability assay; assay type: functional, cell-based; conditions: dose 1-10 µM
[39] = test system: MM.1R; assay: Down regulation of IKZF3 protein expression in human MM1.R cells at 5 to 10 uM after 48 hrs by immunoblotting analysis; assay type: functional, cell-based; conditions: dose 5-10 µM
[40] = test system: MM.1R; assay: Down regulation of IKZF1 protein expression in human MM1.R cells at 5 to 10 uM after 48 hrs by immunoblotting analysis; assay type: functional, cell-based; conditions: dose 5-10 µM
[41] = test system: MM.1R; assay: Down regulation of MYC protein expression in human MM1.R cells at 5 to 10 uM after 48 hrs by immunoblotting analysis; assay type: functional, cell-based; conditions: dose 5-10 µM
[42] = test system: JJN-3; assay: Down regulation of SP1 protein expression in human JJN-3 cells at 10 uM after 48 hrs by immunoblotting analysis; assay type: functional, cell-based
[43] = test system: JJN-3; assay: Induction of apoptosis in human JJN-3 cells assessed as increase in cleaved caspace-8 protein expression at 10 to 50 uM after 48 hrs by […]; assay type: functional, cell-based; conditions: dose 10-50 µM
[44] = test system: JJN-3; assay: Down regulation of IRF4 protein expression in human JJN-3 cells at 10 to 100 uM after 48 hrs in presence of TMP by immunoblotting analysis; assay type: functional, cell-based; conditions: dose 10-100 µM
[45] = test system: JJN-3; assay: Down regulation of IKZF1 protein expression in human JJN-3 cells at 10 to 100 uM after 48 hrs in presence of TMP by immunoblotting analysis; assay type: functional, cell-based; conditions: dose 10-100 µM
[46] = test system: KMM-1; assay: Growth inhibition of human KMM-1 cells at 0.001 to 50 uM after 48 hrs by PrestoBlue cell viability assay; assay type: functional, cell-based; conditions: dose 0.001-50 µM
[47] = test system: A549; assay: Cytotoxicity against human A549 cells assessed as reduction in cell viability after 48 hrs by MTT assay; assay type: functional, cell-based; conditions: A549, 48 h
[48] = test system: KMM-1; assay: Growth inhibition of human KMM-1 cells assessed as induction morphological changes at 25 to 50 uM after 48 hrs by phase contrast microscopic method; assay type: functional, cell-based; conditions: dose 25-50 µM
[49] = test system: IMR-32; assay: Cytotoxicity against human IMR-32 cells assessed as reduction in cell viability after 48 hrs by MTT assay; assay type: functional, cell-based; conditions: IMR-32, 48 h

COc1cc(/C=C/C(=O)OCCc2ccccc2)cc(OC)c1O
growth inhibition (GI) [1]: inactive

Oc1ccc(/C=C/COCCCc2ccccc2)cc1O
IC50 [2]: 2 µM | Activity [3]: inactive | Ratio IC50 [4]: 6.5 | IC50 [5]: 14 µM | Activity [6]: Active | Activity [7]: inactive | IC50 [8]: 6.6 µM

O=C(/C=C/c1ccc(O)c(O)c1)OCCCc1ccccc1
Activity [9]: Active | Activity [10]: 14% | IC50 [2]: 4.9 µM | inhibition of growth at 10 µM [11]: 28% | Activity [12]: Non-Toxic | viability at 25 µM [13]: 32% | Activity [14]: 4% | Activity [15]: Non-Toxic | fold change (FC) [16]: 2.9 | Activity [17]: Active | IC50 [5]: 6.7 µM | Activity [18]: 43% | Activity [19]: 40.4% | Activity [20]: Active | inhibition of growth at 25 µM [21]: 58.3% | Activity [22]: Active | Activity [23]: 7% | Activity [24]: Active | Activity [25]: 17.2% | Activity [26]: Active | Activity [27]: 62% | viability at 10 µM [28]: 55% | Activity [29]: Dose-dependent effect | Activity [30]: Active | Activity [31]: 30% | inhibition of growth at 50 µM [32]: 80% | IC50 [8]: 12 µM | Activity [33]: Active | growth inhibition (GI) [34]: Active | Activity [35]: Active | Activity [36]: 27%

O=C(/C=C/c1ccc(O)cc1O)OCCCc1ccccc1
growth inhibition (GI) [1]: inactive

COc1cc(/C=C/C(=O)OCCCc2ccccc2)ccc1O
growth inhibition (GI) [1]: inactive

O=C(O)/C=C/c1ccc(O)c(O)c1
Activity [37]: inactive | growth inhibition (GI) [38]: inactive

O=C(/C=C/c1cc(O)ccc1O)OCCCc1ccccc1
Activity [39]: Active | IC50 [2]: 0.6 µM | inhibition of growth at 10 µM [11]: 89.7% | Ratio IC50 [4]: 12 | IC50 [5]: 3.9 µM | Activity [19]: 64.5% | Activity [40]: Active | Activity [6]: Active | Activity [41]: Active | Activity [7]: Active | Activity [42]: Active | Activity [43]: Active | Activity [44]: Active | Activity [45]: Active | Activity [31]: 54% | IC50 [8]: 1.9 µM | Activity [35]: Active

COc1cc(/C=C/C(=O)OCCc2ccccc2)ccc1O
growth inhibition (GI) [1]: inactive

O=C(/C=C/c1ccc(O)c(O)c1)OCCC1CCCCC1
growth inhibition (GI) [38]: Active | fold change (FC) [16]: 3.2

Nc1cccc2c1C(=O)N(C1CCC(=O)NC1=O)C2=O (configuration not stated) [POMALIDOMIDE]
growth inhibition (GI) [46]: inactive | Activity [19]: 18.4% | Activity [31]: 43%

COc1cc(/C=C/C(=O)OCCCc2ccccc2)cc(OC)c1O
growth inhibition (GI) [1]: inactive

O=C(/C=C/c1ccc(O)c(O)c1)NCCc1ccccc1
Activity [37]: inactive | growth inhibition (GI) [38]: Active

O=C(/C=C/c1cccc(O)c1O)OCCCc1ccccc1
growth inhibition (GI) [1]: inactive

O=C(/C=C/c1ccc(O)c(O)c1)OCCc1ccccc1 [CAFFEIC ACID PHENETHYL ESTER]
Activity [9]: Active | Activity [10]: 9% | IC50 [2]: 17.8 µM | Activity [12]: Non-Toxic | viability at 25 µM [13]: 51% | Activity [14]: 3% | Activity [15]: Non-Toxic | IC50 [47]: 80 µM | growth inhibition (GI) [38]: Active | IC50 [5]: 30 µM | Activity [18]: 31% | Activity [19]: 25.8% | inhibition of growth at 25 µM [21]: 38.7% | Activity [7]: Active | Activity [23]: 4% | Activity [24]: Active | Activity [25]: 15% | Activity [42]: Active | growth inhibition (GI) [48]: Active | Activity [27]: 26% | viability at 10 µM [28]: 71% | Activity [31]: 41% | inhibition of growth at 50 µM [32]: 59% | IC50 [8]: 37.5 µM | growth inhibition (GI) [34]: Active | IC50 [49]: 5 µM | Activity [36]: 17%
